Reference: patent publication US20220281848A1, “PYRAZOLE-SUBSTITUTED PYRROLIDINONES AS HERBICIDES” (FMC Corporation, priority 2019, published 2022)

Legend:
[1] = tested on: barnyardgrass (Echinochloa crus-galli, ECHCG); experiment: Test A post-emergence, barnyardgrass; format: in vivo; conditions: after 13 d
Outline: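 Visual damage at 13 d after treatment, rated from 0 (no damage) to 100 (total damage). Eight-day-old pot-grown plants had been sprayed with 15.625, 62.5 or 250 g/ha of compound in aqueous acetone (50:50) containing 0.5% Tween 20.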

wheat = experiment: Test D post-emergence, wheat seed treated with a herbicide safener; format: in vivo; conditions: "Cereals" Postemergent
Description: A formulation containing 50 g/L of the test chemical was prepared by dissolving the active ingredient in a mixture of organic solvents and emulsifier, details of which are provided in the table. This formulation was then mixed with a small, variable amount of acetone to aid dissolution, before addition of a 0.2% v/v aqueous solution of an adjuvant, as the aqueous diluent, to form an aqueous spray solution which contains a predetermined concentration of the active ingredient.
This aqueous spray solution was then sprayed onto plants including maize and wheat that had been seed treated with a herbicide safener, after one day's cultivation (for pre-emergence) or after about 12 days' cultivation (for post-emergence). The plants were grown from seeds sown in standard soil, placed in a glasshouse under controlled conditions (at 24/18° C. or 20/16° C., day/night; 16 h light; 65% humidity). After spray application the plants were then grown in a glasshouse under the same conditions and watered twice daily. After 15 d for post-emergence and 20 DAA for pre-emergence the test was evaluated (100=total damage to plant; 0=no damage to plant).

[2] = Rates 130, evaluated after 15 d
[3] = Rates 250, evaluated after 15 d
[4] = Rates 500, evaluated after 15 d

SMILES | damage to plant (100=total damage; 0=no damage) ECHCG ([1]; Post-Emergence at 15.625 g/ha) | damage to plant (100=total damage; 0=no damage) ECHCG ([1]; Post-Emergence at 62.5 g/ha) | damage to plant (100=total damage; 0=no damage) ECHCG ([1]; Post-Emergence at 250 g/ha) | TRZAW damage rating (100=total damage to plant; 0=no damage to plant) (wheat; [2]) | TRZAW damage rating (100=total damage to plant; 0=no damage to plant) (wheat; [3]) | TRZAW damage rating (100=total damage to plant; 0=no damage to plant) (wheat; [4])
CN1CC(c2cc(C(F)(F)F)n(C)n2)C(C(=O)Nc2cccc(F)c2F)C1=O (racemic) [Compound 3] | 90 | 90 | 90 | 0 | 0 | 50
CN1CC(c2cc(C(F)(F)F)n(C)n2)C(C(=O)Nc2ccc(F)cc2F)C1=O (racemic) [Compound 6] | 70 | 70 | 70 | 0 | 10 | 20
CCn1nc([C@H]2CN(C)C(=O)[C@@H]2C(=O)Nc2cccc(F)c2F)c2c(F)cccc21 [Compound 7] | 60 | 80 | 80 | – | – | –
CN1CC(c2cc(C(F)(F)F)n(C)n2)C(C(=O)Nc2ccccc2F)C1=O (racemic) [Compound 9] | 60 | 90 | 90 | – | – | –
CCn1nc([C@H]2CN(C)C(=O)[C@@H]2C(=O)Nc2cccc(F)c2F)c2ccc(F)cc21 [Compound 4] | 80 | 90 | 90 | – | – | –
CCn1nc([C@H]2CN(C)C(=O)[C@@H]2C(=O)Nc2cccc(F)c2F)c2cc(F)ccc21 [Compound 8] | 60 | 70 | 80 | – | – | –
CN1CC(c2cc(C(F)(F)F)n(C)n2)C(C(=O)Nc2cccc(F)n2)C1=O (racemic) [Compound 24] | 40 | 80 | 80 | 0 | 0 | 0
CCn1nc([C@@H]2CN(C)C(=O)[C@H]2C(=O)Nc2cccc(F)c2F)c2cccc(F)c21 [Compound 14] | 80 | 80 | 80 | 10 | 70 | 80
CN1CC(c2cc(C(F)(F)F)n(C)n2)C(C(=O)Nc2ccc(F)c(F)c2F)C1=O (racemic) [Compound 17] | 60 | 70 | 80 | 0 | 40 | 70
CN1CC(c2cc(Cl)n(C)n2)C(C(=O)Nc2ccc(F)c(F)c2F)C1=O (racemic) [Compound 31] | 50 | 80 | 80 | – | – | –
CN1CC(c2cc(C(F)(F)F)n(C)n2)C(C(=O)Nc2ccc(F)cc2C(C)(F)F)C1=O (racemic) [Compound 26] | – | 70 | 90 | 0 | 0 | 40
CN1CC(c2cc(C(F)(F)F)n(C)n2)C(C(=O)Nc2ccc(F)nc2F)C1=O (racemic) [Compound 22] | 60 | 70 | 80 | 0 | 0 | 10
CN1CC(c2cc(C(F)(F)F)n(C)n2)C(C(=O)Nc2cccc(F)c2C(F)(F)F)C1=O (racemic) [Compound 19] | 60 | 70 | 80 | 0 | 0 | 20
CN1CC(c2cnn(C)c2C(F)(F)F)C(C(=O)Nc2cccc(F)c2F)C1=O (racemic) [Compound 25] | 30 | 70 | 80 | – | – | –
CN1C[C@H](c2nn(C)c3c(F)cccc23)[C@@H](C(=O)Nc2cccc(F)c2F)C1=O [Compound 2] | 0 | 90 | 90 | 20 | 20 | 60
COc1c(F)cccc1NC(=O)C1C(=O)N(C)CC1c1cc(C(F)(F)F)n(C)n1 (racemic) [Compound 18] | 50 | 70 | 70 | 0 | 10 | 40
